Like-named read-outs stand apart in the source and are kept apart here.
Assays:
A2780 cells [1] = test: MTT reduction assay, early toxicity, 4 h treatment; type: cell-based; details: inhibition at maximum concentration (100 μM) where no plateau, ND = not detectable
Experimental: (§1) The complexes described above are intended to replace registered platinum complexes. Platinum complexes constitute the core of the chemotherapy regimen used in ovarian cancer; therefore, we used a cellular model of ovarian cancer, A2780, and primary human dermal fibroblasts as models of non-transformed cells (controls). For the characterization of the complexes, we used an MTT assay after 4 h of treatment for the detection of early toxicity and an SRB assay 48 h after treatment for the detection of cytostasis.
(§2) An MTT reduction assay was measures the activity of mitochondrial complex I and can be used to detect toxicity. The assay was performed in a manner similar to that described in [84]. Briefly, cells were plated in 96-well plates the day before the assay. Cells were treated with the compounds for 4 h; then, MTT was added to a 0.5 mg/mL final concentration, and cells were incubated at 37 °C in a cell incubator for 40–60 min as a function of the cell line being assessed. Culture medium was removed, the reduced MTT dye was dissolved in dimethyl-sulfoxide, and plates were measured in a plate photometer (Thermo Scientific Multiscan GO spectrophotometer, Waltham, MA, USA) at 540 nm. On each plate, wells were designed to contain vehicle-treated cells. In calculations, the readings for these wells were considered to 1, and all readings were expressed relative to these values.
(§3) Statistical analysis was performed using version 8.0.1 of GraphPad Prism. Values were tested for normal distribution using the Shapiro–Wilk normality test. Nonlinear regression was performed using the built-in “[Inhibitor] vs. response—Variable slope (four parameters), least square fit” utility of GraphPad, which yielded IC50 and Hill slope values if the sigmoid curves reached a plateau of inhibition and there was no decrease between two subsequent data points or when inhibition was over 90%. In other cases, the percentage of inhibition was taken for the maximum concentration (100 μM).

[2] = system: primary human dermal fibroblasts; test: MTT reduction assay, early toxicity, 4 h treatment; type: cell-based; details: up to 100 μM
Experimental: as §1, §2, §3

A2780 cells [3] = test: SRB binding assay, cytostasis, 48 h treatment; type: cell-based; details: for A2780 SRB Max Inhibition: up to 100 μM, ND = not detectable
Experimental: as §1
An SRB assay measures protein content of cells in correlation with the cell number in an assay well and can therefore be used to assess cell proliferation or long-term cytostasis. Cells were seeded in 96-well plates the day before the assay. Cells were treated with the compounds for 48 h. Then medium was removed, and cells were fixed with 10% trichloroacetic acid. Fixed cells were washed in distilled water 3 times, followed by staining with SRB (0.4 m/V% dissolved in 1% acetic acid) for 10 min. Stained cells were washed in 1% acetic acid 5 times; acetic acid was removed, and cells were left to dry. Protein-bound SRB was released by adding 100 μL 10 mM Tris base. Plates were measured in a plate photometer (Thermo Scientific Multiscan GO spectrophotometer, Waltham, MA, USA) at 540 nm. On each plate, wells were designed to contain vehicle-treated cells. In calculations, the readings for these wells were considered to be 1, and all readings were expressed relative to these values.
as §3

[4] = Distribution coefficient (logD), n-octanol-PBS; type: physicochemical; details: n-octanol-PBS (pH = 7.4) system
Experimental: The logD values of the newly synthesized complexes were determined according to a procedure described in our previous publications. page 64: Ir-7b +1.17 Rh-7b +1.41 Ru-7c +1.31 Os-7c +1.59 Ir-7c +1.40 Rh-7c +1.13 Ru-7d +1.26 Os-7d +1.42 Ir-7d +1.30 Rh-7d +1.04 Ru-7e +2.22 Os-7e +2.21 Ir-7e +1.39 Rh-7e +1.66 *logD was determined in an n-octanol-PBS (pH = 7.4) system 64 (14 pictures or pasted objects on this page, not shown here)

[5] = system: Enterococcus faecalis (ATCC29212); test: Broth microdilution MIC, reference strain; type: cell-based; details: 24 h, tested range 0.08–40 μM, read-out: MIC E. faecalis ATCC 29,212
Experimental: (§4) The reference strains of Staphylococcus aureus (ATCC29213) and Enterococcus faecalis (ATCC29212) were purchased from the ATCC (Manassas, VA, USA).
(§5) Microdilution experiments were performed according to the standards of EUCAST [85]. The bacterial isolates to be tested were grown on Mueller–Hinton agar plates. The inoculum density of bacteria was set at 5.0 × 10^5 CFU/mL in microtiter plates in a final volume of 200 μL Mueller–Hinton broth. The tested concentration range was 0.08–40 μM (10 concentrations, twofold serial dilutions), and a drug-free growth control and an inoculum-free negative control were included. The inoculated plates were incubated for 24 h at 37 °C, then visually assessed. Minimum inhibitory concentration (MIC) was defined as the lowest concentration with a 50%≤ inhibitory effect compared to the growth control. All experiments were performed at least twice in duplicate.

[6] = system: Staphylococcus aureus (ATCC29213); test: Broth microdilution MIC, reference strain; type: cell-based; details: 0.08–40 μM, read-out: MIC S. aureus ATCC 29213
Experimental: as §4, §5

[7] = system: vancomycin-resistant Enterococcus (VRE) clinical isolates; test: Broth microdilution MIC, clinical VRE isolates; type: cell-based, E. faecium; details: 24 h, 0.08–40 μM
Experimental: (§6) We used a set of clinical isolates of S. aureus and E. faecium that were collected at the Medical Center of the University of Debrecen (Hungary) between 1 January 2018. and 31 December 2020. The clinical isolates were identified using a Microflex MALDI-TOF mass spectrometer (Bruker, Billerica, MA, USA). The antibiotic susceptibility of the isolates was tested following the European Committee on Antimicrobial Susceptibility Testing (EUCAST) guidelines, which were valid at the time of collection.
as §5

[8] = system: methicillin-resistant Staphylococcus aureus (MRSA) clinical isolates; test: Broth microdilution MIC, clinical MRSA isolates; type: cell-based; details: 24 h, 0.08–40 μM
Experimental: as §6, §5

[9] = clinical isolate 25,051 VRE, read-out: MIC 25,051 VRE
[10] = clinical isolate 25,498 VRE, read-out: MIC 25,498 VRE
[11] = clinical isolate 27,085 VRE, read-out: MIC 27,085 VRE
[12] = clinical isolate 20,426 MRSA, read-out: MIC 20,426 MRSA
[13] = clinical isolate 24,035 MRSA, read-out: MIC 24,035 MRSA
[14] = clinical isolate 24,268 MRSA, read-out: MIC 24,268 MRSA
[15] = clinical isolate 24,272 MRSA, read-out: MIC 24,272 MRSA
[16] = clinical isolate 24,328 MRSA, read-out: MIC 24,328 MRSA
[17] = clinical isolate 24,408 MRSA, read-out: MIC 24,408 MRSA

SMILES | A2780 MTT Max Inhibition (A2780 cells [1]) | Fibroblast MTT Max Inhibition [2] | A2780 SRB Max Inhibition (A2780 cells [3]) | logD [4] | MIC [5] | MIC ([6]; 24 h) | MIC [7, 9] | MIC [7, 10] | MIC [7, 11] | MIC [8, 12] | MIC [8, 13] | MIC [8, 14] | MIC [8, 15] | MIC [8, 16] | MIC [8, 17] | IC50 (A2780 cells [3]) | also measured
Cc1c(C)c(C)[c-](C)c1C.F[P-](F)(F)(F)(F)F.NC1C(c2cccnn2)OC(COC(=O)c2ccccc2)C(OC(=O)c2ccccc2)C1OC(=O)c1ccccc1.[Cl][Ir+2] (mixture of isomers) [Ir-7b] | 53.39% | 27.22% | 77.58% | 1.17 | 40 µM | >40 µM | 40 µM | 40 µM | 40 µM | 40 µM | 40 µM | 40 µM | 40 µM | 40 µM | 40 µM |  | 
Cc1ccc(C(C)C)cc1.F[P-](F)(F)(F)(F)F.NC1C(c2cccnn2)OC(COC(=O)c2ccccc2)C(OC(=O)c2ccccc2)C1OC(=O)c1ccccc1.[Cl][Os+] (mixture of isomers) [Os-7b] | 53.39% | 27.22% | >90% | 1.32 | 10 µM | 20 µM | 10 µM | 10 µM | 10 µM | 10 µM | 10 µM | 10 µM | 10 µM | 20 µM | 10 µM | 56.4 µM | 
Cc1c(C)c(C)[c-](C)c1C.F[P-](F)(F)(F)(F)F.NC1C(c2cccnn2)OC(COC(=O)c2ccccc2)C(OC(=O)c2ccccc2)C1OC(=O)c1ccccc1.[Cl][Rh+2] (mixture of isomers) [Rh-7b] | 62.85% | 11.39% | >90% | 1.41 | >40 µM | >40 µM | >40 µM | >40 µM | >40 µM | >40 µM | >40 µM | >40 µM | >40 µM | >40 µM | >40 µM | 32 µM | 
N[C@@H]1[C@@H](OC(=O)c2ccccc2)[C@H](OC(=O)c2ccccc2)[C@@H](COC(=O)c2ccccc2)O[C@H]1c1cccnn1 [Complex 7b, 3-(2′-Amino-2′-deoxy-3′,4′,6′-tri-O-benzoyl-β-D-glucopyranosyl)pyridazine] |  | 11.39% | 18.38% |  |  |  |  |  |  |  |  |  |  |  |  |  | inhibition at 100 µM (A2780 cells [1]; Homo sapiens, read-out: A2780 MTT Max Inhibition): 9.12%; MIC ([5]; Enterococcus faecalis): > 40 µM; MIC ([6]; Staphylococcus aureus, ATCC29213, 24 h): > 40 µM; MIC ([7]; Enterococcus, clinical isolate 25,051 VRE, read-out: MIC 25,051 VRE): > 40 µM; MIC ([7]; Enterococcus, clinical isolate 25,498 VRE, read-out: MIC 25,498 VRE): > 40 µM; MIC ([7]; Enterococcus, clinical isolate 27,085 VRE, read-out: MIC 27,085 VRE): > 40 µM; MIC ([8]; Staphylococcus aureus, clinical isolate 20,426 MRSA, read-out: MIC 20,426 MRSA): > 40 µM; MIC ([8]; Staphylococcus aureus, clinical isolate 24,035 MRSA, read-out: MIC 24,035 MRSA): > 40 µM; MIC ([8]; Staphylococcus aureus, clinical isolate 24,268 MRSA, read-out: MIC 24,268 MRSA): > 40 µM; MIC ([8]; Staphylococcus aureus, clinical isolate 24,272 MRSA, read-out: MIC 24,272 MRSA): > 40 µM; MIC ([8]; Staphylococcus aureus, clinical isolate 24,328 MRSA, read-out: MIC 24,328 MRSA): > 40 µM; MIC ([8]; Staphylococcus aureus, clinical isolate 24,408 MRSA, read-out: MIC 24,408 MRSA): > 40 µM
Cc1c(C)c(C)[c-](C)c1C.F[P-](F)(F)(F)(F)F.N[C@@H]1[C@@H](OCc2ccccc2)[C@H](OCc2ccccc2)[C@@H](COCc2ccccc2)O[C@H]1c1ccccn1.[Cl][Rh+2] [Rh-3a] |  | 37.82% | >90% | 1.64 | >40 µM | >40 µM | >40 µM | >40 µM | >40 µM | >40 µM | >40 µM | >40 µM | >40 µM | >40 µM | >40 µM | 9.81 µM | 
Cc1c(C)c(C)[c-](C)c1C.F[P-](F)(F)(F)(F)F.N[C@@H]1[C@@H](OC(=O)c2ccccc2)[C@H](OC(=O)c2ccccc2)[C@@H](COC(=O)c2ccccc2)O[C@H]1c1ccc2ccccc2n1.[Cl][Rh+2] [Rh-7e] | 31.89% |  | 67.32% | 1.66 | >40 µM | >40 µM | >40 µM | >40 µM | >40 µM | >40 µM | >40 µM | >40 µM | >40 µM | >40 µM | >40 µM |  | 
Cc1ccc(C(C)C)cc1.F[P-](F)(F)(F)(F)F.N[C@@H]1[C@@H](OC(=O)c2ccccc2)[C@H](OC(=O)c2ccccc2)[C@@H](COC(=O)c2ccccc2)O[C@H]1c1ccc2ccccc2n1.[Cl][Ru+] [Ru-7e] | 27.04% |  | 67.50% | 2.22 | >40 µM | >40 µM | >40 µM | >40 µM | >40 µM | >40 µM | >40 µM | >40 µM | >40 µM | >40 µM | >40 µM |  | 
